Results: PubChem BioAssay AID270 (DTP/NCI, 2004)
Where “and” joins values, the source holds several entries; their conditions need not be identical. Equal entries are not always repeated. Records with an inconclusive call do not appear.

Test system: BDF1 mice, s.c. Lewis lung carcinoma, T/C %
Experiment: NCI In Vivo Anticancer Drug Screen. Data for tumor model Lewis Lung Carcinoma (subcutaneous) in B6D2F1 (BDF1) mice
Outline: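 Transplanted tumors grown in mice; compound vs vehicle dosing; endpoint survival or tumor size; ratio T/C.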

[1] = endpoint: median survival time, dose: 6.25 mg/kg/injection, schedule: Q01DX009 (ip), vehicle: other, higher = longer survival
[2] = endpoint: median survival time, dose: 12.5 mg/kg/injection, schedule: Q01DX009 (ip), vehicle: other, higher = longer survival
[3] = endpoint: median survival time, dose: 25.0 mg/kg/injection, schedule: Q01DX009 (ip), vehicle: other, higher = longer survival
[4] = endpoint: median survival time, dose: 50.0 mg/kg/injection, schedule: Q01DX009 (ip), vehicle: other, higher = longer survival
[5] = endpoint: median survival time, dose: 25.0 mg/kg/injection, schedule: Q01DX009 (ip), vehicle: saline with Tween-80, higher = longer survival
[6] = endpoint: median survival time, dose: 50.0 mg/kg/injection, schedule: Q01DX009 (ip), vehicle: saline with Tween-80, higher = longer survival

## COc1cc(NC(=O)N(CCCl)N=O)cc(OC)c1OC
endpoint: median survival time, dose: 3.12 mg/kg/injection, schedule: Q01DX009 (ip), vehicle: other, higher = longer survival
  T/C: 103 % of control
[1]
  T/C: 102 % of control
[2]
  T/C: 101 % of control
[3]
  T/C: 94 % of control
[4]
  T/C: 99 % of control

## OC(COc1cccc2ccccc12)CN(CCCl)CCCl (stereo not given)
endpoint: median survival time, dose: 1.25 mg/kg/injection, schedule: Q01DX009 (ip), vehicle: Klucel (hydroxypropylcellulose) (HPC), higher = longer survival
  T/C: 94 % of control and 104 % of control
endpoint: median survival time, dose: 2.5 mg/kg/injection, schedule: Q01DX009 (ip), vehicle: Klucel (hydroxypropylcellulose) (HPC), higher = longer survival
  T/C: 100 % of control and 101 % of control
endpoint: median survival time, dose: 5.0 mg/kg/injection, schedule: Q01DX009 (ip), vehicle: Klucel (hydroxypropylcellulose) (HPC), higher = longer survival
  T/C: 103 % of control

## NC(=S)N/N=C\c1nccc2c(N)cccc12
endpoint: median survival time, dose: 6.25 mg/kg/injection, schedule: Q01DX009 (ip), vehicle: saline with Tween-80, higher = longer survival
  T/C: 107 % of control and 110 % of control
endpoint: median survival time, dose: 12.5 mg/kg/injection, schedule: Q01DX009 (ip), vehicle: saline with Tween-80, higher = longer survival
  T/C: 94 % of control and 113 % of control
[5]
  T/C: 112 % of control and 117 % of control
[6]
  T/C: 105 % of control
endpoint: median survival time, dose: 75.0 mg/kg/injection, schedule: Q01DX009 (ip), vehicle: saline with Tween-80, higher = longer survival
  T/C: 110 % of control and 124 % of control

## CC(C)=CCC/C(C)=C/C=O
endpoint: mean tumor weight, dose: 50.0 mg/kg/injection, schedule: Q01DX010 (ip), vehicle: saline, higher = larger tumour
  T/C: 84 % of control
endpoint: mean tumor weight, dose: 100.0 mg/kg/injection, schedule: Q01DX010 (ip), vehicle: saline, higher = larger tumour
  T/C: 61 % of control

## O=NN(CCF)C(=O)NC1CCS(=O)(=O)CC1
endpoint: median survival time, dose: 9.0 mg/kg/injection, schedule: Q01DX001 (ip), vehicle: other, higher = longer survival
  T/C: 120 % of control
endpoint: median survival time, dose: 14.0 mg/kg/injection, schedule: Q01DX001 (ip), vehicle: other, higher = longer survival
  T/C: 109 % of control
endpoint: median survival time, dose: 21.0 mg/kg/injection, schedule: Q01DX001 (ip), vehicle: other, higher = longer survival
  T/C: 121 % of control
endpoint: median survival time, dose: 32.0 mg/kg/injection, schedule: Q01DX001 (ip), vehicle: other, higher = longer survival
  T/C: 107 % of control
endpoint: median tumor weight (est.), dose: 11.0 mg/kg/injection, schedule: Q01DX001 (ip), vehicle: other, higher = larger tumour
  T/C: 65 % of control
endpoint: median tumor weight (est.), dose: 21.0 mg/kg/injection, schedule: Q01DX001 (ip), vehicle: other, higher = larger tumour
  T/C: 65 % of control
endpoint: median tumor weight (est.), dose: 32.0 mg/kg/injection, schedule: Q01DX001 (ip), vehicle: other, higher = larger tumour
  T/C: 10 % of control

## N/C(=N\Cl)C(Cl)(Cl)Cl
[1]
  T/C: 101 % of control
[2]
  T/C: 110 % of control
[3]
  T/C: 100 % of control
[4]
  T/C: 96 % of control

## CSc1ncc(Br)c(Sc2nc(N)nc3nc[nH]c23)n1
endpoint: mean tumor weight, dose: 5.0 mg/kg/injection, schedule: Q01DX011 (ip), vehicle: other, higher = larger tumour
  T/C: 57 % of control
endpoint: mean tumor weight, dose: 10.0 mg/kg/injection, schedule: Q01DX011 (ip), vehicle: other, higher = larger tumour
  T/C: 100 % of control
endpoint: mean tumor weight, dose: 20.0 mg/kg/injection, schedule: Q01DX011 (ip), vehicle: other, higher = larger tumour
  T/C: 65 % of control

## CCO/C=C1\SC(=S)N(c2ccccc2OC)C1=O
endpoint: median survival time, dose: 1.56 mg/kg/injection, schedule: Q01DX009 (ip), vehicle: Klucel (hydroxypropylcellulose) (HPC), higher = longer survival
  T/C: 100 % of control
endpoint: median survival time, dose: 3.12 mg/kg/injection, schedule: Q01DX009 (ip), vehicle: Klucel (hydroxypropylcellulose) (HPC), higher = longer survival
  T/C: 98 % of control
endpoint: median survival time, dose: 6.25 mg/kg/injection, schedule: Q01DX009 (ip), vehicle: Klucel (hydroxypropylcellulose) (HPC), higher = longer survival
  T/C: 109 % of control
endpoint: median survival time, dose: 12.5 mg/kg/injection, schedule: Q01DX009 (ip), vehicle: Klucel (hydroxypropylcellulose) (HPC), higher = longer survival
  T/C: 101 % of control

## CC1=CC(=O)N(NC(N)=O)C1=O
endpoint: median survival time, dose: 12.5 mg/kg/injection, schedule: Q01DX009 (ip), vehicle: saline, higher = longer survival
  T/C: 107 % of control
endpoint: median survival time, dose: 25.0 mg/kg/injection, schedule: Q01DX009 (ip), vehicle: saline, higher = longer survival
  T/C: 104 % of control
endpoint: median survival time, dose: 50.0 mg/kg/injection, schedule: Q01DX009 (ip), vehicle: saline, higher = longer survival
  T/C: 90 % of control

## CC1OC(OCC2OC(Oc3c(-c4ccc(O)c(O)c4)oc4cc(O)cc(O)c4c3=O)C(O)C(O)C2O)C(O)C(O)C1O (stereo not given)
endpoint: mean tumor weight, dose: 62.5 mg/kg/injection, schedule: Q01DX011 (ip), vehicle: saline, higher = larger tumour
  T/C: 104 % of control
endpoint: mean tumor weight, dose: 125.0 mg/kg/injection, schedule: Q01DX011 (ip), vehicle: saline, higher = larger tumour
  T/C: 93 % of control
endpoint: mean tumor weight, dose: 250.0 mg/kg/injection, schedule: Q01DX011 (ip), vehicle: saline, higher = larger tumour
  T/C: 67 % of control
endpoint: mean tumor weight, dose: 500.0 mg/kg/injection, schedule: Q01DX011 (ip), vehicle: saline, higher = larger tumour
  T/C: 52 % of control

## C=C(C)C12CC(C)C34OC5(CCCCCCCC(C)C6C(C)C(OC(=O)c7ccccc7)C(O)(C(O)C7(COC(=O)CCCCCCCCCCCCCCC)OC7C3C1O5)C64)O2 (stereo not given)
endpoint: median survival time, dose: 1.0 micrograms/kg/injection, schedule: Q01DX009 (ip), vehicle: Klucel (hydroxypropylcellulose) (HPC), higher = longer survival
  T/C: 93 % of control
endpoint: median survival time, dose: 1.9 micrograms/kg/injection, schedule: Q01DX009 (ip), vehicle: Klucel (hydroxypropylcellulose) (HPC), higher = longer survival
  T/C: 209 % of control
endpoint: median survival time, dose: 2.0 micrograms/kg/injection, schedule: Q01DX009 (ip), vehicle: Klucel (hydroxypropylcellulose) (HPC), higher = longer survival
  T/C: 86 % of control
endpoint: median survival time, dose: 3.8 micrograms/kg/injection, schedule: Q01DX009 (ip), vehicle: Klucel (hydroxypropylcellulose) (HPC), higher = longer survival
  T/C: 208 % of control
endpoint: median survival time, dose: 4.0 micrograms/kg/injection, schedule: Q01DX009 (ip), vehicle: Klucel (hydroxypropylcellulose) (HPC), higher = longer survival
  T/C: 97 % of control
endpoint: median survival time, dose: 7.5 micrograms/kg/injection, schedule: Q01DX009 (ip), vehicle: Klucel (hydroxypropylcellulose) (HPC), higher = longer survival
  T/C: 209 % of control
endpoint: median survival time, dose: 8.0 micrograms/kg/injection, schedule: Q01DX009 (ip), vehicle: Klucel (hydroxypropylcellulose) (HPC), higher = longer survival
  T/C: 96 % of control
endpoint: median survival time, dose: 15.0 micrograms/kg/injection, schedule: Q01DX009 (ip), vehicle: Klucel (hydroxypropylcellulose) (HPC), higher = longer survival
  T/C: 101 % of control
endpoint: median survival time, dose: 16.0 micrograms/kg/injection, schedule: Q01DX009 (ip), vehicle: Klucel (hydroxypropylcellulose) (HPC), higher = longer survival
  T/C: 88 % of control

## CC1CCOS(=O)O1 (stereo not given)
endpoint: mean tumor weight, dose: 10.0 mg/kg/injection, schedule: Q01DX011 (ip), vehicle: saline, higher = larger tumour
  T/C: 66 % of control
endpoint: mean tumor weight, dose: 20.0 mg/kg/injection, schedule: Q01DX011 (ip), vehicle: saline, higher = larger tumour
  T/C: 63 % of control
endpoint: mean tumor weight, dose: 40.0 mg/kg/injection, schedule: Q01DX011 (ip), vehicle: saline, higher = larger tumour
  T/C: 65 % of control

## COc1cc(OC)c(-c2cc(=O)c3c(OC)c(OC)c(OC)c(OC)c3o2)cc1OC
endpoint: mean tumor weight, dose: 50.0 mg/kg/injection, schedule: Q01DX011 (ip), vehicle: saline, higher = larger tumour
  T/C: 73 % of control
endpoint: mean tumor weight, dose: 100.0 mg/kg/injection, schedule: Q01DX011 (ip), vehicle: saline, higher = larger tumour
  T/C: 70 % of control
endpoint: mean tumor weight, dose: 200.0 mg/kg/injection, schedule: Q01DX011 (ip), vehicle: saline, higher = larger tumour
  T/C: 97 % of control
endpoint: mean tumor weight, dose: 400.0 mg/kg/injection, schedule: Q01DX011 (ip), vehicle: saline, higher = larger tumour
  T/C: 51 % of control

## O=c1n(CCCl)c(=O)n(CCCl)c(=O)n1CCCl
endpoint: mean tumor weight, dose: 25.0 mg/kg/injection, schedule: Q01DX011 (ip), vehicle: other, higher = larger tumour
  T/C: 121 % of control
endpoint: mean tumor weight, dose: 50.0 mg/kg/injection, schedule: Q01DX011 (ip), vehicle: other, higher = larger tumour
  T/C: 116 % of control
endpoint: mean tumor weight, dose: 100.0 mg/kg/injection, schedule: Q01DX011 (ip), vehicle: other, higher = larger tumour
  T/C: 65 % of control
endpoint: mean tumor weight, dose: 200.0 mg/kg/injection, schedule: Q01DX011 (ip), vehicle: other, higher = larger tumour
  T/C: 113 % of control
endpoint: mean tumor weight, dose: 400.0 mg/kg/injection, schedule: Q01DX011 (ip), vehicle: other, higher = larger tumour
  T/C: 108 % of control

## CO[C@H]1C[C@H](O[C@H]2CC[C@]3(C=O)[C@H]4CC[C@]5(C)[C@@H](C6=CC(=O)OC6)CC[C@]5(O)[C@@H]4CC[C@]3(O)C2)O[C@H](C)[C@H]1O
endpoint: mean tumor weight, dose: 2.6 mg/kg/injection, schedule: Q01DX011 (sc), vehicle: steriod suspending solution, higher = larger tumour
  T/C: 59 % of control
endpoint: mean tumor weight, dose: 4.0 mg/kg/injection, schedule: Q01DX011 (sc), vehicle: steriod suspending solution, higher = larger tumour
  T/C: 78 % of control

## C=COCC(C)C (tested in a mixture with another compound)
endpoint: median survival time, dose: 1.25 mg/kg/injection, schedule: Q01DX009 (ip), vehicle: other, higher = longer survival
  T/C: 101 % of control
endpoint: median survival time, dose: 2.5 mg/kg/injection, schedule: Q01DX009 (ip), vehicle: other, higher = longer survival
  T/C: 110 % of control
endpoint: median survival time, dose: 5.0 mg/kg/injection, schedule: Q01DX009 (ip), vehicle: other, higher = longer survival
  T/C: 107 % of control

## CC(=O)OC1C=CC(=O)OC1C1OC1C (stereo not given)
endpoint: mean tumor weight, dose: 4.0 mg/kg/injection, schedule: Q01DX011 (ip), vehicle: saline, higher = larger tumour
  T/C: 105 % of control
endpoint: mean tumor weight, dose: 6.0 mg/kg/injection, schedule: Q01DX011 (ip), vehicle: saline, higher = larger tumour
  T/C: 81 % of control
endpoint: mean tumor weight, dose: 9.0 mg/kg/injection, schedule: Q01DX011 (ip), vehicle: saline, higher = larger tumour
  T/C: 91 % of control
endpoint: mean tumor weight, dose: 19.0 mg/kg/injection, schedule: Q01DX011 (ip), vehicle: saline, higher = larger tumour
  T/C: 62 % of control

## CCN(CC)c1nc(N(CC)CC)nc(N(CC)CC)n1
[5]
  T/C: 95 % of control
[6]
  T/C: 105 % of control
endpoint: median survival time, dose: 100.0 mg/kg/injection, schedule: Q01DX009 (ip), vehicle: saline with Tween-80, higher = longer survival
  T/C: 95 % of control
endpoint: median survival time, dose: 200.0 mg/kg/injection, schedule: Q01DX009 (ip), vehicle: saline with Tween-80, higher = longer survival
  T/C: 104 % of control
endpoint: median survival time, dose: 400.0 mg/kg/injection, schedule: Q01DX009 (ip), vehicle: saline with Tween-80, higher = longer survival
  T/C: 89 % of control
